Laboratory results: patent US20020137929A1, “1 - (3-heterocyclylphenyl) isothiourea, -isourea, -guanidine and -amidine herbicidal agents” (Intellectual Property Department, BASF Aktiengesellschaft, priority 1998, published 2002)

How the values were obtained:
ABUTH (Velvetleaf) [1] = assay: Postemergence herbicidal evaluation; format: in vivo, Abutilon theophrasti; conditions: for ABUTH herbicidal rating: postemergence
Outline: (§1)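 Rate range approx. 0.0156–0.500 kg/ha. Foliar application at 40 psi to ~2-week seedlings; surfactant 0.5% TWEEN 20 in 50/50 acetone/water. Evaluation 4–5 wk post-treatment by 0–9 visual injury score, means of replicate tests.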

[2] = system: CHEAL (Lambsquarters, Common); assay: Postemergence herbicidal evaluation; format: in vivo, Chenopodium album; conditions: for CHEAL herbicidal rating: postemergence
Outline: as §1

ECHCG (Barnyardgrass) [3] = assay: Postemergence herbicidal evaluation; format: in vivo, Echinochloa crus-galli; conditions: for ECHCG herbicidal rating: postemergence
Outline: as §1

SETVI (Foxtail, Green) = assay: Postemergence herbicidal evaluation; format: in vivo, Setaria viridis; conditions: for SETVI herbicidal rating: postemergence
Outline: as §1

ORYSAT (Rice, Tebonnet) = assay: Postemergence herbicidal evaluation; format: in vivo, Oryza sativa, (L.) Tebonnet; conditions: for ORYSAT herbicidal rating: postemergence
Outline: as §1

ZEAMX (Corn, Field) [4] = assay: Postemergence herbicidal evaluation; format: in vivo, Zea mays; conditions: for ZEAMX herbicidal rating: postemergence
Outline: as §1

ABUTH (Velvetleaf) [5] = assay: Preemergence herbicidal evaluation; format: in vivo, Abutilon theophrasti; conditions: rated 4-5 weeks after treatment
Outline: (§2)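 In this greenhouse assay, monocot and dicot seeds are planted in soil and treated prior to emergence with an aqueous acetone spray (about 0.0156-0.500 kg/ha). Plants are assessed visually against control on a 0-9 scale after 4-5 weeks.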

CASOB (Sicklepod) = assay: Preemergence herbicidal evaluation; format: in vivo, Cassia obtusifolia; conditions: rated 4-5 weeks after treatment
Outline: as §2

[6] = system: CHEAL (Lambsquarters, Common); assay: Preemergence herbicidal evaluation; format: in vivo, Chenopodium album; conditions: rated 4-5 weeks after treatment
Outline: as §2

[7] = system: IPOHE (Morningglory, Ivyleaf); assay: Preemergence herbicidal evaluation; format: in vivo, Ipomoea hederacea; conditions: rated 4-5 weeks after treatment
Outline: as §2

ECHCG (Barnyardgrass) [8] = assay: Preemergence herbicidal evaluation; format: in vivo, Echinochloa crus-galli; conditions: rated 4-5 weeks after treatment
Outline: as §2

[9] = system: GLXMAW (Soybean, Williams); assay: Preemergence herbicidal evaluation; format: in vivo, Glycine max, (L.) Merr. cv Williams; conditions: rated 4-5 weeks after treatment
Outline: as §2

[10] = system: TRZAWR (Wheat, Winter, cv Riband); assay: Preemergence herbicidal evaluation; format: in vivo, Triticum aestivum; conditions: rated 4-5 weeks after treatment
Outline: as §2

ZEAMX (Corn, Field) [11] = assay: Preemergence herbicidal evaluation; format: in vivo, Zea mays; conditions: rated 4-5 weeks after treatment
Outline: as §2

CYPIR (Rice Flatsedge) = assay: Postemergence weed control under flooded paddy conditions; format: in vivo, Cyperus iria; conditions: postemergence weeds, 3-4 weeks after treatment
Outline: (§3)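 Containers holding 3–5 cm weeds and rice at 1.5–2.5 leaves are flooded to 1.5–3 cm above soil. Compound in 50/50 v/v aqueous/acetone is then added directly to the water, about 0.0313–0.500 kg/ha. Plants are kept in the greenhouse and rated 0–9 visually at 3–4 weeks.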

CYPSE (Flatsedge) = assay: as above; format: in vivo, Cyperus serotinus; conditions: postemergence weeds, 3-4 weeks after treatment
Outline: as §3

[12] = system: IPOHE (Morningglory, Ivyleaf); assay: Postemergence herbicidal evaluation; format: in vivo, Ipomoea hederacea
Outline: as §1

CN1C(=O)CS/C1=N/c1cc(-n2c(=O)cc(C(F)(F)F)n(C)c2=O)c(F)cc1Cl [Compound 7]
2.0: ECHCG herbicidal rating (ECHCG (Barnyardgrass) [3]; rate 0.0157 kg/ha)
0.0: CHEAL herbicidal rating ([2]; rate 0.0157 kg/ha) | ECHCG herbicidal rating (ECHCG (Barnyardgrass) [3]; rate 0.0313 kg/ha)
5.0: CHEAL herbicidal rating ([2]; rate 0.0313 kg/ha) | SETVI herbicidal rating (SETVI (Foxtail, Green); rate 0.0157 kg/ha) | ZEAMX herbicidal rating (ZEAMX (Corn, Field) [4]; rate 0.0157 kg/ha) | ECHCG preemergence herbicidal rating (ECHCG (Barnyardgrass) [8]; rate 0.0157 kg/ha) | GLXMAW preemergence herbicidal rating ([9]; rate 0.0157 kg/ha) | TRZAWR preemergence herbicidal rating ([10]; rate 0.0157 kg/ha)
7.5: GLXMAW preemergence herbicidal rating ([9]; rate 0.0625 kg/ha) | TRZAWR preemergence herbicidal rating ([10]; rate 0.0625 kg/ha) | Herbicidal rating CYPSE (CYPSE (Flatsedge); rate 0.1250 kg/ha)
6.5: ORYSAT herbicidal rating (ORYSAT (Rice, Tebonnet); rate 0.1250 kg/ha) | GLXMAW preemergence herbicidal rating ([9]; rate 0.0313 kg/ha) | TRZAWR preemergence herbicidal rating ([10]; rate 0.0313 kg/ha)
7.0: ZEAMX herbicidal rating (ZEAMX (Corn, Field) [4]; rate 0.0625 kg/ha) | ZEAMX herbicidal rating (ZEAMX (Corn, Field) [4]; rate 0.1250 kg/ha) | ZEAMX preemergence herbicidal rating (ZEAMX (Corn, Field) [11]; rate 0.0157 kg/ha) | Herbicidal rating CYPSE (CYPSE (Flatsedge); rate 0.0625 kg/ha)
8.0: CASOB preemergence herbicidal rating (CASOB (Sicklepod); rate 0.1250 kg/ha) | GLXMAW preemergence herbicidal rating ([9]; rate 0.1250 kg/ha) | ZEAMX preemergence herbicidal rating (ZEAMX (Corn, Field) [11]; rate 0.0313 kg/ha) | Herbicidal rating CYPSE (CYPSE (Flatsedge); rate 0.2500 kg/ha)
3.0: ECHCG herbicidal rating (ECHCG (Barnyardgrass) [3]; rate 0.0625 kg/ha) | Herbicidal rating CYPSE (CYPSE (Flatsedge); rate 0.0313 kg/ha)
4.0: ECHCG herbicidal rating (ECHCG (Barnyardgrass) [3]; rate 0.1250 kg/ha) | SETVI herbicidal rating (SETVI (Foxtail, Green); rate 0.0313 kg/ha) | ORYSAT herbicidal rating (ORYSAT (Rice, Tebonnet); rate 0.0313 kg/ha) | IPOHE preemergence herbicidal rating ([7]; rate 0.0313 kg/ha) | IPOHE preemergence herbicidal rating ([7]; rate 0.0625 kg/ha)
9.0: ABUTH herbicidal rating (ABUTH (Velvetleaf) [1]; rate 0.0157 kg/ha) | ABUTH herbicidal rating (ABUTH (Velvetleaf) [1]; rate 0.0313 kg/ha) | ABUTH herbicidal rating (ABUTH (Velvetleaf) [1]; rate 0.0625 kg/ha) | ABUTH herbicidal rating (ABUTH (Velvetleaf) [1]; rate 0.1250 kg/ha) | CHEAL herbicidal rating ([2]; rate 0.1250 kg/ha) | SETVI herbicidal rating (SETVI (Foxtail, Green); rate 0.0625 kg/ha) | SETVI herbicidal rating (SETVI (Foxtail, Green); rate 0.1250 kg/ha) | ABUTH preemergence herbicidal rating (ABUTH (Velvetleaf) [5]; rate 0.0157 kg/ha) | ABUTH preemergence herbicidal rating (ABUTH (Velvetleaf) [5]; rate 0.0313 kg/ha) | ABUTH preemergence herbicidal rating (ABUTH (Velvetleaf) [5]; rate 0.0625 kg/ha) | ABUTH preemergence herbicidal rating (ABUTH (Velvetleaf) [5]; rate 0.1250 kg/ha) | ABUTH preemergence herbicidal rating (ABUTH (Velvetleaf) [5]; rate 0.2500 kg/ha) | CASOB preemergence herbicidal rating (CASOB (Sicklepod); rate 0.0157 kg/ha) | CASOB preemergence herbicidal rating (CASOB (Sicklepod); rate 0.0313 kg/ha) | CASOB preemergence herbicidal rating (CASOB (Sicklepod); rate 0.0625 kg/ha) | CASOB preemergence herbicidal rating (CASOB (Sicklepod); rate 0.2500 kg/ha) | CHEAL preemergence herbicidal rating ([6]; rate 0.0157 kg/ha) | CHEAL preemergence herbicidal rating ([6]; rate 0.0313 kg/ha) | CHEAL preemergence herbicidal rating ([6]; rate 0.0625 kg/ha) | CHEAL preemergence herbicidal rating ([6]; rate 0.1250 kg/ha) | CHEAL preemergence herbicidal rating ([6]; rate 0.2500 kg/ha) | IPOHE preemergence herbicidal rating ([7]; rate 0.1250 kg/ha) | IPOHE preemergence herbicidal rating ([7]; rate 0.2500 kg/ha) | ECHCG preemergence herbicidal rating (ECHCG (Barnyardgrass) [8]; rate 0.0313 kg/ha) | ECHCG preemergence herbicidal rating (ECHCG (Barnyardgrass) [8]; rate 0.0625 kg/ha) | ECHCG preemergence herbicidal rating (ECHCG (Barnyardgrass) [8]; rate 0.1250 kg/ha) | ECHCG preemergence herbicidal rating (ECHCG (Barnyardgrass) [8]; rate 0.2500 kg/ha) | ZEAMX preemergence herbicidal rating (ZEAMX (Corn, Field) [11]; rate 0.2500 kg/ha) | Herbicidal rating CYPIR (CYPIR (Rice Flatsedge); rate 0.0625 kg/ha) | Herbicidal rating CYPIR (CYPIR (Rice Flatsedge); rate 0.1250 kg/ha) | Herbicidal rating CYPIR (CYPIR (Rice Flatsedge); rate 0.2500 kg/ha)
8.5: GLXMAW preemergence herbicidal rating ([9]; rate 0.2500 kg/ha) | TRZAWR preemergence herbicidal rating ([10]; rate 0.1250 kg/ha) | TRZAWR preemergence herbicidal rating ([10]; rate 0.2500 kg/ha) | ZEAMX preemergence herbicidal rating (ZEAMX (Corn, Field) [11]; rate 0.0625 kg/ha) | ZEAMX preemergence herbicidal rating (ZEAMX (Corn, Field) [11]; rate 0.1250 kg/ha) | Herbicidal rating CYPIR (CYPIR (Rice Flatsedge); rate 0.0313 kg/ha)
6.0: CHEAL herbicidal rating ([2]; rate 0.0625 kg/ha) | ZEAMX herbicidal rating (ZEAMX (Corn, Field) [4]; rate 0.0313 kg/ha)
4.5: ORYSAT herbicidal rating (ORYSAT (Rice, Tebonnet); rate 0.0157 kg/ha) | ORYSAT herbicidal rating (ORYSAT (Rice, Tebonnet); rate 0.0625 kg/ha)

CCOC(=O)CN1C(=O)C(CC(=O)OC(C)C)SC1=Nc1cc(-n2c(=O)cc(C(F)(F)F)n(C)c2=O)c(F)cc1Cl (stereo not drawn) [Compound 55, 2-{{2-Chloro-5-[3,6-dihydro-3-methyl-2,6-dioxo-4-(trifluoromethyl)-1(2H)-pyrimidinyl]-4-fluoro-phenyl}imino}-4-oxo-3,5-thiazolidinediacetic acid, 3-ethyl isopropyl ester]
2.5: Postemergence herbicidal rating ORYSAT (ORYSAT (Rice, Tebonnet); Rate 0.0158 kg/ha)
7.5: Postemergence herbicidal rating ZEAMX (ZEAMX (Corn, Field) [4]; Rate 0.0158 kg/ha)
8.3: Postemergence herbicidal rating ZEAMX (ZEAMX (Corn, Field) [4]; Rate 0.0313 kg/ha)
8.8: Postemergence herbicidal rating ZEAMX (ZEAMX (Corn, Field) [4]; Rate 0.1250 kg/ha)
4.2: Postemergence herbicidal rating ORYSAT (ORYSAT (Rice, Tebonnet); Rate 0.0625 kg/ha)
8.7: Postemergence herbicidal rating ZEAMX (ZEAMX (Corn, Field) [4]; Rate 0.0625 kg/ha)
6.5: Postemergence herbicidal rating ORYSAT (ORYSAT (Rice, Tebonnet); Rate 0.2500 kg/ha)
0.0: Herbicidal rating CYPSE (CYPSE (Flatsedge); rate 0.0313 kg/ha) | Herbicidal rating CYPSE (CYPSE (Flatsedge); rate 0.0625 kg/ha) | Herbicidal rating CYPSE (CYPSE (Flatsedge); rate 0.1250 kg/ha) | Herbicidal rating CYPSE (CYPSE (Flatsedge); rate 0.2500 kg/ha)
9.0: Postemergence herbicidal rating ABUTH (ABUTH (Velvetleaf) [1]; Rate 0.0313 kg/ha) | Postemergence herbicidal rating ABUTH (ABUTH (Velvetleaf) [1]; Rate 0.0625 kg/ha) | Postemergence herbicidal rating ABUTH (ABUTH (Velvetleaf) [1]; Rate 0.1250 kg/ha) | Postemergence herbicidal rating ABUTH (ABUTH (Velvetleaf) [1]; Rate 0.2500 kg/ha) | Postemergence herbicidal rating CHEAL ([2]; Rate 0.0158 kg/ha) | Postemergence herbicidal rating CHEAL ([2]; Rate 0.0313 kg/ha) | Postemergence herbicidal rating CHEAL ([2]; Rate 0.0625 kg/ha) | Postemergence herbicidal rating CHEAL ([2]; Rate 0.1250 kg/ha) | Postemergence herbicidal rating CHEAL ([2]; Rate 0.2500 kg/ha) | Postemergence herbicidal rating IPOHE ([12]; Rate 0.0158 kg/ha) | Postemergence herbicidal rating IPOHE ([12]; Rate 0.0313 kg/ha) | Postemergence herbicidal rating IPOHE ([12]; Rate 0.0625 kg/ha) | Postemergence herbicidal rating IPOHE ([12]; Rate 0.1250 kg/ha) | Postemergence herbicidal rating IPOHE ([12]; Rate 0.2500 kg/ha) | Postemergence herbicidal rating ECHCG (ECHCG (Barnyardgrass) [3]; Rate 0.0158 kg/ha) | Postemergence herbicidal rating ECHCG (ECHCG (Barnyardgrass) [3]; Rate 0.0313 kg/ha) | Postemergence herbicidal rating ECHCG (ECHCG (Barnyardgrass) [3]; Rate 0.0625 kg/ha) | Postemergence herbicidal rating ECHCG (ECHCG (Barnyardgrass) [3]; Rate 0.1250 kg/ha) | Postemergence herbicidal rating ECHCG (ECHCG (Barnyardgrass) [3]; Rate 0.2500 kg/ha) | Postemergence herbicidal rating SETVI (SETVI (Foxtail, Green); Rate 0.0158 kg/ha) | Postemergence herbicidal rating SETVI (SETVI (Foxtail, Green); Rate 0.0313 kg/ha) | Postemergence herbicidal rating SETVI (SETVI (Foxtail, Green); Rate 0.0625 kg/ha) | Postemergence herbicidal rating SETVI (SETVI (Foxtail, Green); Rate 0.1250 kg/ha) | Postemergence herbicidal rating SETVI (SETVI (Foxtail, Green); Rate 0.2500 kg/ha) | Postemergence herbicidal rating ZEAMX (ZEAMX (Corn, Field) [4]; Rate 0.2500 kg/ha) | Herbicidal rating CYPIR (CYPIR (Rice Flatsedge); rate 0.0313 kg/ha) | Herbicidal rating CYPIR (CYPIR (Rice Flatsedge); rate 0.0625 kg/ha) | Herbicidal rating CYPIR (CYPIR (Rice Flatsedge); rate 0.1250 kg/ha) | Herbicidal rating CYPIR (CYPIR (Rice Flatsedge); rate 0.2500 kg/ha)
5.5: Postemergence herbicidal rating ORYSAT (ORYSAT (Rice, Tebonnet); Rate 0.1250 kg/ha)
8.0: Postemergence herbicidal rating ABUTH (ABUTH (Velvetleaf) [1]; Rate 0.0158 kg/ha)
3.5: Postemergence herbicidal rating ORYSAT (ORYSAT (Rice, Tebonnet); Rate 0.0313 kg/ha)
